The values below come from US5525503A, “Signal transduction via CD28” (priority 1993, dated 1996).

The test system of one series is CD28 signalling. As to conditions: cited from earlier work.
Series [1] concerns the target association of PI 3-kinase with CD28 (Homo sapiens, UniProt P27986). The experiment in a line: Peptide competition: displacement of PI 3-kinase from CD28 (anti-CD28 immunoprecipitation, anti-p85 immunoblotting). In kind it is binding. Particulars: peptide 10-50 μM; longer exposure of autoradiograph. On the technique in general: A western blot detects proteins with antibodies after separation by electrophoresis.

The test system of the next series is PI 3-kinase. The experiment in a line: CD28-associated PI 3-kinase lipid kinase activity of CD28 mutants in transfected Cos-1 cells after anti-CD28 crosslinking (TLC, laser densitometry). In kind it is cell-based. As to conditions: relative to wild type CD28. From the text:
FIG. 8 is a photograph of TLC analysis of lipid products following CD28 crosslinking. Cos-1 cells were transfected with wild type CD28 (WT) (lane 2), Tyr-191 to Phe mutant (F191) (lane 3), Met-194 to Cys (C194) (lane 4), and Tyr-209 to Phe (F209) (lane 5). Transfected cells were then subjected to anti-CD28 crosslinking, immunoprecipitation and lipid kinase analysis. Non-transfected cells served as a negative control (lane 1), while immunoprecipitation with anti-p85 antibody served as a positive control (lane 6).
FIG. 9 is a bar graph showing relative autoradiographic intensities of PI-P spots detected in the TLC analysis shown in FIG. 8. Intensity was quantitated by laser densitometric scanning.
The lipid kinase reaction was carried out on beads using soybean phosphatidyl inositol liposomes and γ32P-ATP (20 μCi). Lipids were then extracted using chloroform and methanol (1:1) and separated by thin layer chromatography on a silica gel plate precoated with potassium oxalate using a basic system (chloroform, methanol, water, ammonium hydroxide (60:47:11.3:2), as described in Whitman et al., supra and Auger et al., supra. The corresponding TLC spots were cut, counted for Cherenkov counts and extracted with a solution containing methylamine, methanol and n-butanol (57.7 ml of 25% methylamine in water, 61.6 ml of methanol and 15.6 ml of n-butanol) for 1 h at 53° C. This method also results in the deacylation of lipids. The samples were dried under vacuum and reconstituted in water. […] The deacylated phospholipids were analyzed on a Beckman HPLC system using an ion exchange column and a gradient of NH4 HPO4. ^3 H-PI-4P and adenosine diphosphate were used as internal standards.
Amino acid residues at positions Tyr-191, Met-194 and Tyr-209 were mutated using a site-directed mutagenesis system from Promega (Madison, Wis.). […] Cells were assessed for cell surface expression of CD28 by fluorescence-activated cell sorting (FACS) (EPICS, Coulter Immunology, Hialeah, Fla.). […]

Sequence of association of PI 3-kinase with CD28 (P27986 whole entry): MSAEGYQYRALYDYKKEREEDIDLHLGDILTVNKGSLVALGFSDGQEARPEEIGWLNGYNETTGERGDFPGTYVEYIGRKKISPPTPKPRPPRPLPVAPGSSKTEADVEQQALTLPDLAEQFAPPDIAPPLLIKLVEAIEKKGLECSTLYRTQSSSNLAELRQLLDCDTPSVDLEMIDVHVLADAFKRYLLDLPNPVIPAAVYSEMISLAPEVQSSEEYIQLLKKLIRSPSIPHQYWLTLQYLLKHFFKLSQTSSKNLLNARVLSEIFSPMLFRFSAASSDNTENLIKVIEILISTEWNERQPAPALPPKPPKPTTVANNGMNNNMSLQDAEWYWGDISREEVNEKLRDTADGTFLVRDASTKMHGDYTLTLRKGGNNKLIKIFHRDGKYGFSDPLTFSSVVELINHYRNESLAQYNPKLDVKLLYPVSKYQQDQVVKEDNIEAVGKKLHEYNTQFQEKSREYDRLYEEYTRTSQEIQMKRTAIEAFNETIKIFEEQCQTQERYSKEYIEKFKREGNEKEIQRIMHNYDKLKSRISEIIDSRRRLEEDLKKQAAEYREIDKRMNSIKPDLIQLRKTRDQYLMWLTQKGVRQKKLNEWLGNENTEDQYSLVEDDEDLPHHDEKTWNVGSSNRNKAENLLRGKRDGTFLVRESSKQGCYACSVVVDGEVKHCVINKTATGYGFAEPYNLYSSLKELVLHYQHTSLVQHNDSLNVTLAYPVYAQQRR

For `C=CC[C@@H]1/C=C(\C)C[C@H](C)C[C@H](OC)[C@H]2O[C@@](O)(C(=O)C(=O)N3CCCC[C@H]3C(=O)O[C@H](/C(C)=C/[C@@H]3CC[C@@H](O)[C@H](OC)C3)[C@H](C)[C@@H](O)CC1=O)[C@H](C)C[C@@H]2OC` [FK506], the “sensitivity of CD28 signalling to the reagent” value in the series with CD28 signalling is “resistant”. For the compound `CSCC[C@H](NC(=O)[C@@H]1CCCN1C(=O)[C@H](CCSC)NC(=O)[C@H](Cc1ccc(OP(=O)(O)O)cc1)NC(=O)[C@H](CCC(=O)O)NC(=O)[C@H](CCC(=O)O)NC(=O)[C@@H](N)CCC(=O)O)C(=O)N[C@@H](CCC(=O)O)C(=O)N[C@@H](CC(=O)O)C(=O)N[C@@H](CC(C)C)C(=O)N[C@@H](Cc1ccc(O)cc1)C(=O)N[C@@H](CC(C)C)C(=O)O` [Glu-Glu-Glu-Tyr-Met-Pro-Met-Glu-Asp-Leu-Tyr-Leu], the “reduction of the level of CD28-associated p85 PI 3-kinase” value in series [1] is 60-80%.

With “C194: CD28 with Met-194 mutated to Cys by site-directed mutagenesis”, in the series with PI 3-kinase, the “effect of CD28 mutation on associated PI 3-kinase (TLC, in words)” value was “partial effect in reducing the level of associated kinase” and the “reduction of CD28-associated PI 3-kinase activity (laser densitometry of PI-P spots)” value is reported as “approximately 40%”. As to “F209: CD28 with distal Tyr-209 mutated to Phe, control mutant”, in the series on PI 3-kinase, the “effect of CD28 mutation on associated PI 3-kinase (TLC, in words)” value is reported as “no effect relative to the wild type control”. As for cholera toxin, the “sensitivity of CD28 signalling to the reagent” value in the series with CD28 signalling is listed as “resistant”.
